Results from patent US20150144845A1, “SOLVENT OR SOLVENT COMPOSITION FOR ORGANIC TRANSISTOR PRODUCTION” (DAICEL CORPORATION, priority 2012, published 2015).
Like-named read-outs stand apart in the source and are kept apart here.

Key:
[1] = Visual solubility of Rubrene in solvent for organic transistor production; assay type: physicochemical; settings: summary of Examples, 100° C.
Protocol: (§1) The resulting mixture was heated in a nitrogen atmosphere under a light-shielding condition at 100° C. for about 6 hours, preparing a composition for organic transistor production. With respect to the resulting composition for organic transistor production, the solubility of the organic semiconductor material was observed. Herein, the solubility was visually evaluated, and a case where no insoluble material was observed was rated as “∘: dissolution”, and a case where an insoluble material was observed was rated as “x: not dissolution”. The same shall apply hereafter.
Rubrene (compound represented by formula (2-1)) (produced by Tokyo Chemical Industry Co., Ltd.) was used as an organic semiconductor material, and each solvent for organic transistor production shown in Table 2 was used under an environment of 20° C., providing a mixture including the organic semiconductor material in a concentration of 4.00% by weight to 5.00% by weight. The resulting mixture was heated in a nitrogen atmosphere under a light-shielding condition at 100° C. for about 2 hours, preparing a composition for organic transistor production. With respect to the resulting composition for organic transistor production, the solubility of the organic semiconductor material was observed.

[2] = Visual solubility of pentacene in solvent for organic transistor production
Protocol: as §1

[3] = Visual solubility of DNTT in solvent for organic transistor production
Protocol: as §1
(§2) The resulting mixture was heated in a nitrogen atmosphere under a light-shielding condition at 100° C. for about 2 hours, preparing a composition for organic transistor production. With respect to the resulting composition for organic transistor production, the solubility of the organic semiconductor material was observed.

[4] = Visual solubility of DPh-BTBT in solvent for organic transistor production
Protocol: as §1, §2

| SMILES | solubility of Rubrene in the solvent compared with tetralin and 1,2,4-trichlorobenzene [1] | solubility of pentacene in the solvent compared with tetralin and 1,2,4-trichlorobenzene ([2]; summary of Examples, 100° C.) | solubility of DNTT in the solvent compared with tetralin and 1,2,4-trichlorobenzene ([3]; summary of Examples, 100° C.) | solubility of DPh-BTBT in the solvent compared with tetralin and 1,2,4-trichlorobenzene ([4]; summary of Examples, 100° C.) | solubility of pentacene in the solvent compared with tetralin and 1,2,4-trichlorobenzene [2] | solubility of DNTT in the solvent compared with tetralin and 1,2,4-trichlorobenzene [3] | solubility of DPh-BTBT in the solvent compared with tetralin and 1,2,4-trichlorobenzene [4] |
| --- | --- | --- | --- | --- | --- | --- | --- |
| CN1CCCN(C)C1=O [1,3-dimethyl-3,4,5,6-tetrahydro-2(1H)-pyrimidinone] | excellent | better | better | better | – | – | – |
| CN1CCN(C)C1=O [1,3-dimethyl-2-imidazolidinone] | excellent | – | – | – | better | better | better |
